Experimental data from patent US11365204B2, “Substituted dihydrothienopyrimidines and their use as phosphodiesterase inhibitors” (UNION therapeutics A/S, priority 2017, dated 2022).

Assays:
[1] = target: human PDE4D catalytic domain (UniProt no. Q08499 [S380-L740]) (Homo sapiens (Human), UniProt Q08499); assay: PDE4 assay (TR-FRET, cAMP hydrolysis); format: biochemical; settings: read-out: PDE4 IC50 range
In short: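 The human PDE4D catalytic domain (S380-L740) was incubated with unlabelled plus FAM-labelled cAMP and titrated compound, briefly. Product AMP was detected by Tb-nanoparticle TR-FRET. IC50 (nM) came from Tb-normalized signal scaled between DMSO and 10 microM reference-inhibitor controls.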

[2] = tested on: Human peripheral blood mononuclear cells (PBMC); assay: TNF-α release from LPS-stimulated PBMC; format: cell-based; settings: Lipopolysaccharide 1 microg/ml, 18 hours, AlphaLISA, read-out: TNF-α IC50 range
In short: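 Thawed human PBMC in serum-free buffer with 0.5% human serum albumin were stimulated with 1 microg/ml LPS alongside titrated compound for 18 h at 37 °C. Supernatant TNFα was measured by AlphaLISA at 615 nm, and IC50 was derived relative to LPS-only and 10 microM reference PDE4 inhibitor controls.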

Sequence of human PDE4D catalytic domain (Q08499 380-740): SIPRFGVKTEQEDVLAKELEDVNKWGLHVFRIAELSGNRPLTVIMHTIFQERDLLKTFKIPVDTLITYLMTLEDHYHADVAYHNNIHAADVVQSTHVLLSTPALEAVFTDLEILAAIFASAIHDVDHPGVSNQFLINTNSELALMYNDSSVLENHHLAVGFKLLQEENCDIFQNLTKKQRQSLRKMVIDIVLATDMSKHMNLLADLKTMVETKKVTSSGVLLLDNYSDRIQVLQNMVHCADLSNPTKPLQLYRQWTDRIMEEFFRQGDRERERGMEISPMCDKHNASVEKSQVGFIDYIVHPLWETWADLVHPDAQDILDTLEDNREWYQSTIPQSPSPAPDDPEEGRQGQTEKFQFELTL

Row | SMILES | IC50 [1] [nM] | IC50 [2] [nM]
1 | CC(=O)N1CC[C@H](Nc2nc(N3CC(OC(=O)c4cscn4)C3)nc3c2[S@+](O)CC3)C1 [Example 73, [1-[4-[[(3S)-1-acetyl-pyrrolidin-3-yl]amino]-5-oxido-6,7-dihydro-thieno[3,2-d]pyrimidin-5-ium-2-yl]azetidin-3-yl]thiazole-4-carboxylate] | < 100 | 100 to 500
2 | Cc1ccc(C(=O)OC2CN(c3nc4c(c(N(C)C5CCOCC5)n3)[S+]([O-])CC4)C2)cc1 (stereo not drawn) [Example 26, [1-[4-[methyl(tetra-hydropyran-4-yl)amino]-5-oxido-6,7-dihydro-thieno[3,2-d]pyrimidin-5-ium-2-yl]azetidin-3-yl] 4-methylbenzoate] | < 100 | < 100
3 | CNS(=O)(=O)c1ccc(C(=O)OC2CN(c3nc4c(c(N(C)C5CCOCC5)n3)[S+]([O-])CC4)C2)cc1 (stereo not drawn) [Example 58, [1-[4-[methyl(tetra-hydropyran-4-yl)amino]-5-oxido-6,7-dihydro-thieno[3,2-d]pyrimidin-5-ium-2-yl]azetidin-3-yl] 4-(methylsulfamoyl)-benzoate] | < 100 | < 100
4 | CN(c1nc(N2CC(OC(=O)c3cnn(C)c3)C2)nc2c1[S+]([O-])CC2)C1CCOCC1 (stereo not drawn) [Example 18, [1-[4-[methyl(tetra-hydropyran-4-yl)amino]-5-oxido-6,7-dihydro-thieno[3,2-d]pyrimidin-5-ium-2-yl]azetidin-3-yl] 1-methylpyrazole-4-carboxylate] | < 100 | < 100
5 | CCc1cc(C(=O)OC2CN(c3nc4c(c(N(C)C5CCOCC5)n3)[S+]([O-])CC4)C2)nn1C (stereo not drawn) [Example 45, [1-[4-[methyl(tetra-hydropyran-4-yl)amino]-5-oxido-6,7-dihydro-thieno[3,2-d]pyrimidin-5-ium-2-yl]azetidin-3-yl] 5-ethyl-1-methyl-pyrazole-3-carboxylate] | < 100 | < 100
6 | O=C(OC1CN(c2nc3c(c(NC4CC5(COC5)C4)n2)[S+]([O-])CC3)C1)c1cnsc1 (stereo in doubt) [Example 69, [1-[(5S)-4-(6-oxaspiro-[3.3]heptan-2-ylamino)-5-oxido-6,7-dihydrothieno-[3,2-d]pyrimidin-5-ium-2-yl]azetidin-3-yl] isothia-zole-4-carboxylate] | 100 to 500 | > 500
7 | COC(=O)N1CCC(C(=O)OC2CN(c3nc4c(c(N(C)C5CCOCC5)n3)[S+](O)CC4)C2)CC1 (stereo not drawn) [Example 52, O1-methyl O4-[1-[4-[methyl(tetrahydro-pyran-4-yl)amino]-5-oxido-6,7-dihydro-thieno[3,2-d]pyrimidin-5-ium-2-yl]azetidin-3-yl] piperidine-1,4-dicarboxylate] | < 100 | < 100
8 | O=C(OC1CN(c2nc3c(c(NC4CCOCC4)n2)[S@@+]([O-])CC3)C1)C1CCOCC1 [Example 12, [1-[(5R)-5-oxido-4-(tetrahydropyran-4-ylamino)-6,7-dihydrothieno[3,2-d]pyrimidin-5-ium-2-yl]azetidin-3-yl] tetrahydropyran-4-carboxylate] | 100 to 500 | < 100
9 | CSCCC(=O)OC1CN(c2nc3c(c(N(C)C4CCOCC4)n2)[S+]([O-])CC3)C1 (stereo not drawn) [Example 15, [1-[4-[methyl(tetra-hydropyran-4-yl)amino]-5-oxido-6,7-dihydro-thieno[3,2-d]pyrimidin-5-ium-2-yl]azetidin-3-yl] 3-methylsulfanyl-propanoate] | < 100 | < 100
